{"source": "patent US9549557B2", "about": "“Insecticidal synergistic combinations of phthaldiamide derivatives and fipronil or ethiprole” (BAYER CROPSCIENCE AKTIENGESELLSCHAFT, priority 2013, dated 2017)", "key": {"[1]": {"tested_on": "mustard beetle larvae (Phaedon cochleariae)", "experiment": "Phaedon cochleariae - spray test", "assay_type": "in vivo", "conditions": "48 h", "experimental": "(§1) The expected efficacy of a given combination of two compounds is calculated as follows (see Colby, S. R., “Calculating Synergistic and antagonistic Responses of Herbicide Combinations”, Weeds 15, pp. 20-22, 1967):\n(§2) • X is the efficacy expressed in % mortality of the untreated control for test compound A at a concentration of m ppm respectively m g/ha, • Y is the efficacy expressed in % mortality of the untreated control for test compound B at a concentration of n ppm respectively n g/ha, • E is the efficacy expressed in % mortality of the untreated control using the mixture of A and B at m and n ppm respectively m and n g/ha, then is\n(§3) If the observed insecticidal efficacy of the combination is higher than the one calculated as “E”, then the combination of the two compounds is more than additive, i.e., there is a synergistic effect.\nSolvent: 78.0 parts by weight of acetone\n• 1.5 parts by weight of dimethylformamide Emulsifier: 0.5 parts by weight of alkylaryl polyglycolether To produce a suitable preparation of active compound, 1 part by weight of active compound is mixed with the stated amount of solvent and emulsifier, and the concentrate is diluted with emulsifier-containing water to the desired concentration. To produce a suitable preparation of a spore suspension the spores are diluted with emulsifier-containing water to the desired concentration.\nChinese cabbage (Brassica pekinensis) leaf-disks are sprayed with a preparation of the active ingredient of the desired concentration. Once dry, the leaf disks are infested with mustard beetle larvae (Phaedon cochleariae).\nAfter the specified period of time, mortality in % is determined. 100% means all beetle larvae have been killed and 0% means none of the beetle larvae have been killed. The mortality values determined thus are recalculated using the Colby-formula (see sheet 1)."}, "[2]": {"tested_on": "larvae of the diamondback moth (Plutella xylostella)", "experiment": "Plutella xylostella - spray test", "assay_type": "in vivo", "conditions": "48 h, read-out: Efficacy in % after 2 d (mortality)", "experimental": "as §1, §2, §3\nSolvent: 7 parts by weight of dimethylformamide\nEmulsifier: 2 parts by weight of alkylaryl polyglycolether […]\nAfter the specified period of time, the mortality in % is determined. […] The mortality values determined thus are recalculated using the Colby-formula (see sheet 1)."}, "[3]": {"conditions": "read-out: Efficacy in % after 2 d (mortality)"}}}
{"smiles": "Cc1cc(C(F)(C(F)(F)F)C(F)(F)F)ccc1NC(=O)c1cccc(Cl)c1C(=O)NC(C)(C)C#N", "note": "[(I-5)]", "values": [{"measurement": "mortality at 6 g/ha", "setting": "[1]; 6 g ai/ha, after 2 d, Table A-2, read-out: Efficacy in % after 2 d (mortality)", "value": 0, "unit": "%"}, {"measurement": "mortality at 12 g/ha", "setting": "[1]; 12 g ai/ha, after 2 d, Table A-2, read-out: Efficacy in % after 2 d (mortality)", "value": 0, "unit": "%"}, {"measurement": "mortality at 4 g/ha", "setting": "[1]; foliar, 4 g ai/ha, Chinese cabbage leaf disks sprayed, after 2 d, Table A-1, read-out: Efficacy in % after 2 d (mortality)", "value": 0, "unit": "%"}, {"measurement": "mortality at 0.0625 ppm", "setting": "[2]; 0.0625 ppm, cabbage leaves sprayed, after 2 d", "value": 0, "unit": "%"}]}
{"smiles": "CC[S+]([O-])c1c(C#N)nn(-c2c(Cl)cc(C(F)(F)F)cc2Cl)c1N", "note": "(centres unmarked) [Ethiprole (II-2), ethiprole]", "values": [{"measurement": "mortality at 1.2 g/ha", "setting": "[1]; [3]", "value": 33, "unit": "%"}, {"measurement": "mortality at 0.8 g/ha", "setting": "[1]; in Brassica rapa, foliar, read-out: Efficacy in % after 2 d (mortality)", "value": 50, "unit": "%"}]}
{"smiles": "N#Cc1nn(-c2c(Cl)cc(C(F)(F)F)cc2Cl)c(N)c1[S+]([O-])C(F)(F)F", "note": "(centres unmarked) [Fipronil, fipronil]", "values": [{"measurement": "mortality at 0.3 g/ha", "setting": "[1]; [3]", "value": 0, "unit": "%"}, {"measurement": "mortality at 0.125 ppm", "setting": "[2]; in Brassica oleracea", "value": 45, "unit": "%"}]}
